Values of other authors in US20030119882A1, “Solid pharmaceutical composition containing torasemide” (priority 2001, published 2003).

Conditions: present in very fine dispersion in a pharmaceutical tablet; prior art, cf. EP 212 537 A

In the case of `Cc1cccc(Nc2ccncc2S(=O)(=O)NC(=O)NC(C)C)c1` [torasemide of the modification II, 1-isopropyl-3-[(4-m-toluidino-3-pyridyl)sulphonyl]urea], the “Rearrangement of modification II to modification I” value is listed as “rearranges more or less rapidly to the modification I”.
